A short description of this data set: pH of the samples in water, pH probe. Type of data set: physicochemical. The settings on record: aqueous sample.

On to `CC(C)Cn1cnc2c(N)nc3ccccc3c21` [Imiquimod, 1-(2-methylpropyl)-1H-imidazo[4,5-c]quinolin-4-amine], for which the pH stood at 7.10.

For the origin of these results see US11976065B2 (CELISTA PHARMACEUTICALS LLC, priority 2020, dated 2024).
